In PubChem BioAssay (NCI):
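All cell lines were grown in 96-well plates and treated with compound for 48 hours. At the TGI there is no net growth.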

Key:
Test in all cases: NCI-60 cell line screen, 48 h
[1] = tested on: RXF 393 renal
[2] = tested on: UO-31 renal
[3] = tested on: PC-3 prostate
[4] = tested on: MOLT-4 leukemia
[5] = tested on: SF-295 CNS
[6] = tested on: SW-620 colon
[7] = tested on: A498 renal
[8] = tested on: SF-268 CNS
[9] = tested on: SK-MEL-5 melanoma
[10] = tested on: MCF7 breast
[11] = tested on: NCI/ADR-RES ovarian
[12] = tested on: SK-MEL-2 melanoma
[13] = tested on: MALME-3M melanoma
[14] = tested on: RPMI-8226 leukemia
[15] = tested on: COLO 205 colon
[16] = tested on: NCI-H460 lung
[17] = tested on: OVCAR-3 ovarian
[18] = tested on: BT-549 breast
[19] = tested on: A549 NSCLC
[20] = tested on: SNB-19 CNS

Measured: TGI

COc1ccc(N=Nc2ccc3oc(=O)c(C(=O)Nc4ccc(Cl)cc4)cc3c2)cc1
> 10 µM: [1] | [2] | [3] | [4] | [5] | [6] | [7] | [8] | [9] | [10] | [11] | [12] | [13] | [14] | [15] | [16] | [17]

CCOP(=O)(OCC)[C@]12C[C@@H](C)C=C[C@H]1COC2=O
> 100 µM: [1] | [2] | [3] | [4] | [5] | [6] | [7] | [8] | [9] | [18] | [10] | [12] | [13] | [19] | [14] | [15] | [16] | [20] | [17]

CC(=O)C(=[N+]=[N-])C(=O)OCCOC(=O)C(=[N+]=[N-])C(C)=O
> 1 µM: [1] | [2] | [3] | [4] | [5] | [7] | [8] | [9] | [18] | [10] | [12] | [13] | [19] | [14] | [16] | [20] | [17]

CC1(C)N=C(C(=O)c2ccccc2)N(O)C1(O)c1ccccc1 (stereo not given)
> 100 µM: [1] | [2] | [3] | [4] | [5] | [6] | [8] | [9] | [10] | [11] | [12] | [13] | [19] | [14] | [15] | [16] | [20] | [17]

CCNc1nc2c(ncn2C2CC(O)C(COP(=O)(O)O)O2)c(=O)[nH]1 (stereo not given)
> 100 µM: [3] | [5] | [6] | [7] | [8] | [9] | [18] | [10] | [11] | [12] | [13] | [19] | [14] | [15] | [16] | [20] | [17]

COc1ccc(NS(=O)c2ccccc2OC)cc1 (stereo not given)
54.4 µM: [9]
48.6 µM: [15]
41.1 µM: [13]
> 100 µM: [4] | [5] | [6] | [11] | [14] | [16] | [20] | [17]
67.3 µM: [10]
46.6 µM: [12]
39.6 µM: [8]
79.8 µM: [19]
28.2 µM: [2]

CC(C)c1cccc(C(=O)NCCN(C)C)c1[N+](=O)[O-]
97.4 µM: [18]
> 100 µM: [2] | [3] | [4] | [5] | [6] | [7] | [8] | [9] | [10] | [11] | [12] | [13] | [19] | [15] | [16] | [20] | [17]

CC(/C=N\NC(=S)N(C)C)=N/NC(=S)N(C)C
70.7 µM: [12]
2.58 µM: [1]
33.7 µM: [15]
> 100 µM: [3] | [4] | [5] | [6] | [10] | [19] | [14] | [16] | [20]
> 29.3 µM: [8]
> 47.7 µM: [18]
20.1 µM: [7]
> 39.2 µM: [2]
14.1 µM: [9]
> 34.2 µM: [13]
> 22.8 µM: [17]

COC(=O)C1N=CSCC1(C)O (stereo not given)
> 100 µM: [1] | [2] | [4] | [5] | [6] | [7] | [8] | [9] | [12] | [13] | [19] | [14] | [15] | [16] | [20] | [17]

CC(=O)N/N=C1/CC[C@@]2(C)C(=CC[C@H]3C4CCC(C(C)CCCC(C)C)[C@@]4(C)CCC32)C1(C)C (stereo not given in full)
> 100 µM: [2] | [3] | [5] | [6] | [8] | [9] | [18] | [10] | [11] | [12] | [13] | [19] | [14] | [15] | [16] | [20] | [17]
34.1 µM: [4]
